# Results from ChEMBL document CHEMBL4765384, “Development of a metabolically stable topoisomerase I poison as anticancer agent” (Eur J Med Chem, 2020).
# What was measured:
# [1] = Half life in human liver microsomes by LC-MS/MS analysis; type: ADME, Microsome
# [2] = Stability in human liver microsomes assessed as parent compound remaining after 60 mins by LC-MS/MS analysis; type: ADME, Microsome; conditions: read-out: Stabilty
# [3] = Stability in human liver microsomes assessed as parent compound remaining after 60 mins in presence of cofactor by LC-MS/MS analysis; type: ADME, Microsome; conditions: read-out: Stabilty
# [4] = Intrinsic clearance in human liver microsomes after 60 mins in presence of cofactor by LC-MS/MS analysis; type: ADME, Microsome; conditions: 1 h
# [5] = Aqueous solubility of compound; type: physicochemical
# [6] = Stability in human plasma assessed as parent compound remaining after 2 hrs; type: ADME, cell-free; conditions: read-out: Stabilty
# [7] = Lipophilicity, logD of the compound at pH 7.4; type: physicochemical; conditions: buffer
# [8] = target: T1, DNA topoisomerase 1 (Homo sapiens, UniProt P11387); experiment: Inhibition of recombinant human Top1 expressed in baculovirus infected sf9 insect cells using supercoiled pBS (SK+) DNA as substrate incubated for 30 mins by ethidium bromide staining based agarose gel electrophoresis analysis
# T1 sequence (P11387 whole entry): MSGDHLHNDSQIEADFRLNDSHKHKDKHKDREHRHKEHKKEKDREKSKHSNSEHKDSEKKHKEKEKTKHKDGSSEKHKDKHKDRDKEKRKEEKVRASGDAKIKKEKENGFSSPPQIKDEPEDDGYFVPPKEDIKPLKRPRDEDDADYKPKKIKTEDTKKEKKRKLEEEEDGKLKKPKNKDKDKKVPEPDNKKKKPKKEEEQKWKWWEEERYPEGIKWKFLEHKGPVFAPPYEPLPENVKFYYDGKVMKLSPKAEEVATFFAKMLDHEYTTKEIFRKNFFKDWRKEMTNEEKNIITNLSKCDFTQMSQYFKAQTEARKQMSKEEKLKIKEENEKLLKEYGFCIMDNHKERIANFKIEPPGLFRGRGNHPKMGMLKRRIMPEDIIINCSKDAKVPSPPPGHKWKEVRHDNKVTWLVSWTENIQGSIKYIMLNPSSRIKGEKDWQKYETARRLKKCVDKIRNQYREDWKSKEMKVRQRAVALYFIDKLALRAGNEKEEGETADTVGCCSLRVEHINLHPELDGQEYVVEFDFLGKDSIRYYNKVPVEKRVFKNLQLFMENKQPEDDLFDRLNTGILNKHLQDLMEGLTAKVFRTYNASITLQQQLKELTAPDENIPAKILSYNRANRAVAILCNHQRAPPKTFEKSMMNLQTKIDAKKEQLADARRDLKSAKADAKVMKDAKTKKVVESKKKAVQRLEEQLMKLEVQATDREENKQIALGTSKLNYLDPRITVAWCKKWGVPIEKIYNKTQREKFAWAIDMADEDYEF
# [9] = tested on: MCF7; experiment: Cytotoxicity against human MCF7 cells assessed as reduction in cell viability after 48 hr by MTT assay; type: functional, cell-based; conditions: MCF7, 48 h
# [10] = target: T1, DNA topoisomerase 1; experiment: Inhibition of Top1 in human MCF7 cells using supercoiled pBS (SK+) DNA as substrate incubated for 30 mins by ethidium bromide staining based agarose gel electrophoresis analysis; type: cell-based
# [11] = tested on: HEK293; experiment: Cytotoxicity against HEK293 cells assessed as reduction in cell viability after 48 hr by MTT assay; type: cell-based; conditions: Homo sapiens, HEK293, 48 h
SMILES,half-life [1] [min],remaining at 1 h [2] [%],remaining at 1 h [3] [%],CLH [4] [µL/min/mg],IC50 [8] [µM],remaining at 2 h [6] [%],IC50 [11] [µM],other results
Cc1ccc(-c2ccc3ncc(-c4nnco4)c(NCCCn4ccnc4)c3c2)cc1,7.77,0,93,89.3,–,90.8,–,solubility [5]: 0.3 µg/mL; logD [7]: > 3.5
Nc1ccc(-c2ccc3ncc(-c4nnco4)c(NCCCn4ccnc4)c3c2)cc1,69.1,53.7,93.8,10,–,91.3,> 10,IC50 [9]: 2.5 µM; IC50 [10]: 2.5 µM
CC[C@@]1(O)C(=O)OCc2c1cc1n(c2=O)Cc2cc3ccccc3nc2-1 [CAMPTOTHECIN],–,–,–,–,–,–,8.75,–

# The next lines start with results.
half-life [1] [min],remaining at 1 h [2] [%],remaining at 1 h [3] [%],CLH [4] [µL/min/mg],IC50 [8] [µM],SMILES,remaining at 2 h [6] [%],IC50 [11] [µM],other results
9.94,1.68,112,69.7,–,COc1ccc(-c2ccc3ncc(-c4nnco4)c(NCCCn4ccnc4)c3c2)cc1,–,–,–
–,–,–,–,> 10,COc1ccc(-c2ccc3ncc(-c4nnco4)c(NCCCN4CCCC4)c3c2)cc1,–,–,–
–,–,–,–,> 10,COc1ccc(-c2ccc3ncc(-c4nnco4)c(NCCCn4cccc4)c3c2)cc1,–,–,–
